This assay concerns the target T1, Androgen Receptor (AR) protein (Homo sapiens, UniProt P10275, T878A).
T1 construct: endogenous in cells; host or cells: LNCaP
The assay is described as follows: Androgen Receptor (AR) protein degradation assay in LNCaP cells, western blotting. Format: cell-based. To be noted: 20 h; for inhibition at 0.01 µM: 0.01 μM compound; for inhibition at 0.1 µM: 0.1 μM compound; for inhibition at 1 µM: 1 μM compound; for inhibition at 10 µM: 10 μM compound. The procedure, abridged: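 AR protein level was detected by western blot (ECL) against GAPDH or β-actin controls, with 8 μg lysate protein loaded per lane after BCA quantification. Lysates came from LNCaP cells exposed to test compound for 20 h, following 3 days of growth in RPMI/10% FBS.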
(In general: Immunoblotting shows a protein as a band on a membrane.)

T1 sequence (P10275 whole entry T878A): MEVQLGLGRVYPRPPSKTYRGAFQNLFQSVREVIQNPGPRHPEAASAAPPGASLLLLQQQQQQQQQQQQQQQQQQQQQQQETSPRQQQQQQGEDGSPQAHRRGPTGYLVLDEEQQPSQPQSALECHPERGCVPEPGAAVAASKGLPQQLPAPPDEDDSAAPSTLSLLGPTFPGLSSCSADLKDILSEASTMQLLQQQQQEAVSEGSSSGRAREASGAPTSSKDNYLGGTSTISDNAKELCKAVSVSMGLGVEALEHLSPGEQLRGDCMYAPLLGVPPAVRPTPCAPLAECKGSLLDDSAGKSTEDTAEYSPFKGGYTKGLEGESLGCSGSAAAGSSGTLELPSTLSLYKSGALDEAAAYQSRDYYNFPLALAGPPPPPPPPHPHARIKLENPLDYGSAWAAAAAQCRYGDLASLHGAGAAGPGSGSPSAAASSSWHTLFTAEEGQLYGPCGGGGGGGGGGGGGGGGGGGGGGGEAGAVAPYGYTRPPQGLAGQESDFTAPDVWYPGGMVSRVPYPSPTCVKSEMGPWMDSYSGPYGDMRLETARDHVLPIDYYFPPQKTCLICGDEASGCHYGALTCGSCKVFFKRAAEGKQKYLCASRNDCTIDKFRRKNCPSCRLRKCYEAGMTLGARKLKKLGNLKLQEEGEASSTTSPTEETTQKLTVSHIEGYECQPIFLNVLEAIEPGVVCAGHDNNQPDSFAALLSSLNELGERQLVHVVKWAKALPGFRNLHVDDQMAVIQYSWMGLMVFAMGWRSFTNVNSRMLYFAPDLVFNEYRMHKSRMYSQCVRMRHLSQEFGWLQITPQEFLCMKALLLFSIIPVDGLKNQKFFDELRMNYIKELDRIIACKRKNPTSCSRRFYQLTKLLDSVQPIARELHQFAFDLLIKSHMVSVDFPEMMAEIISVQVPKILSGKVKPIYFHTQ
T1 sequence (Q96SW2 whole entry partner): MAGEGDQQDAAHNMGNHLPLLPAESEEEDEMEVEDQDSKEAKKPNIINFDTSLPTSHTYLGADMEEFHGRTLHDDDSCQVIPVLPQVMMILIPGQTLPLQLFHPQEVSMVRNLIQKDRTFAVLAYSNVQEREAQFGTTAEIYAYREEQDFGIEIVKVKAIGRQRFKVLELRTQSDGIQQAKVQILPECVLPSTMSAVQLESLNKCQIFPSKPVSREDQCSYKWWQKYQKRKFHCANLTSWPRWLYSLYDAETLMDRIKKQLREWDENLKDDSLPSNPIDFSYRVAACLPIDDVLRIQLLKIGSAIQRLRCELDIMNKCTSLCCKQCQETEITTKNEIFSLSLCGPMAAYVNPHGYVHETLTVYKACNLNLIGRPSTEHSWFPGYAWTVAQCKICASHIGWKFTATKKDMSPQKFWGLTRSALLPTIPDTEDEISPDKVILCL

As to `N#Cc1ccc(N2CCC(C(=O)Nc3ccc(N4CC5(CCN(C[C@H]6CCN(c7ccc8c(c7)C(=O)N(C7CCC(=O)NC7=O)C8=O)C6)CC5)C4)cn3)CC2)cc1C(F)(F)F` (stereo partly drawn) [Example 125, 1-(4-cyano-3-(trifluoromethyl)phenyl)-N-(5-(7-(((3R)-1-(2-(2,6-dioxopiperidin-3-yl)-1,3-dioxoisoindolin-5-yl)pyrrolidin-3-yl)methyl)-2,7-diazaspiro[3.5]nonan-2-yl)pyridin-2-yl)piperidine-4-carboxamide], the inhibition (in general, the drop in the measured response relative to a control, in per cent) at 0.01 µM came to 25%; the inhibition at 0.1 µM worked out at 84%; testing at 1 µM gave an inhibition of 92%.
With `N#Cc1ccc(N2CCC(C(=O)Nc3ccc(N4CC5(CCN(C[C@@H]6CCN(c7ccc8c(c7)C(=O)N(C7CCC(=O)NC7=O)C8=O)C6)CC5)C4)cn3)CC2)cc1C(F)(F)F` (stereo partly drawn) [Example 126, 1-(4-cyano-3-(trifluoromethyl)phenyl)-N-(5-(7-(((3S)-1-(2-(2,6-dioxopiperidin-3-yl)-1,3-dioxoisoindolin-5-yl)pyrrolidin-3-yl)methyl)-2,7-diazaspiro[3.5]nonan-2-yl)pyridin-2-yl)piperidine-4-carboxamide], 0.01 µM produced 51% inhibition, the inhibition at 0.1 µM was found to be 89% and testing at 1 µM gave an inhibition of 96%.
For `N#Cc1ccc(N2CCC(C(=O)Nc3ccc(N4CCC5(CC4)CN(CC4CCN(c6ccc7c(c6)C(=O)N(C6CCC(=O)NC6=O)C7=O)CC4)C5)cn3)CC2)cc1C(F)(F)F` (stereo not shown) [Example 127, 1-(4-cyano-3-(trifluoromethyl)phenyl)-N-(5-(2-((1-(2-(2,6-dioxopiperidin-3-yl)-1,3-dioxoisoindolin-5-yl)piperidin-4-yl)methyl)-2,7-diazaspiro[3.5]nonan-7-yl)pyridin-2-yl)piperidine-4-carboxamide], in that order: 34%, 52% and 66%.
For `N#Cc1ccc(N2CCC(C(=O)Nc3ccc(N4CCC5(CC4)CN(CC4CN(c6ccc7c(c6)C(=O)N(C6CCC(=O)NC6=O)C7=O)C4)C5)cn3)CC2)cc1C(F)(F)F` (stereo not shown) [Example 128, 1-(4-cyano-3-(trifluoromethyl)phenyl)-N-(5-(2-((1-(2-(2,6-dioxopiperidin-3-yl)-1,3-dioxoisoindolin-5-yl)azetidin-3-yl)methyl)-2,7-diazaspiro[3.5]nonan-7-yl)pyridin-2-yl)piperidine-4-carboxamide], in that order: 28%, 43% and 61%.
Taken in the same sequence, the figures for `N#Cc1ccc(N2CCC(C(=O)Nc3ccc(N4CCC5(CC4)CN(C(=O)C4CCN(c6ccc7c(c6)C(=O)N(C6CCC(=O)NC6=O)C7=O)CC4)C5)cn3)CC2)cc1C(F)(F)F` (stereo not shown) [Example 129, 1-(4-cyano-3-(trifluoromethyl)phenyl)-N-(5-(2-(1-(2-(2,6-dioxopiperidin-3-yl)-1,3-dioxoisoindolin-5-yl)piperidine-4-carbonyl)-2,7-diazaspiro[3.5]nonan-7-yl)pyridin-2-yl)piperidine-4-carboxamide] were 11%, 42% and 71%.
As to `N#Cc1ccc(N2CCC(C(=O)Nc3ccc(N4CCN(CC5CCN(C(=O)CNc6ccc7c(c6)C(=O)N(C6CCC(=O)NC6=O)C7=O)CC5)CC4)cn3)CC2)cc1C(F)(F)F` (stereo not shown) [Example 130, 1-(4-cyano-3-(trifluoromethyl)phenyl)-N-(5-(4-((1-((2-(2,6-dioxopiperidin-3-yl)-1,3-dioxoisoindolin-5-yl)glycyl)piperidin-4-yl)methyl)piperazin-1-yl)pyridin-2-yl)piperidine-4-carboxamide], the inhibition at 0.01 µM came out at 78%, the inhibition at 0.1 µM came out at 95%, the inhibition at 1 µM was determined as 95% and at 10 µM the inhibition was 93%.
Turning to `N#Cc1ccc(N2CCC(C(=O)Nc3ccc(C#CC4CCN(CC5CCN(c6ccc7c(c6)C(=O)N(C6CCC(=O)NC6=O)C7=O)CC5)CC4)cn3)CC2)cc1C(F)(F)F` (stereo not shown) [Example 131, 1-(4-cyano-3-(trifluoromethyl)phenyl)-N-(5-((1-((1-(2-(2,6-dioxopiperidin-3-yl)-1,3-dioxoisoindolin-5-yl)piperidin-4-yl)methyl)piperidin-4-yl)ethynyl)pyridin-2-yl)piperidine-4-carboxamide], the inhibition at 0.01 µM is 28%, the inhibition at 0.1 µM is 66%, 1 µM produced 82% inhibition and 10 µM produced 87% inhibition.
Taken in the same sequence, the figures for `N#Cc1ccc(N2CCC(C(=O)Nc3ccc(C#CC4CCN(CC5CN(c6ccc7c(c6)C(=O)N(C6CCC(=O)NC6=O)C7=O)C5)CC4)cn3)CC2)cc1C(F)(F)F` (stereo not shown) [Example 132, 1-(4-cyano-3-(trifluoromethyl)phenyl)-N-(5-((1-((1-(2-(2,6-dioxopiperidin-3-yl)-1,3-dioxoisoindolin-5-yl)azetidin-3-yl)methyl)piperidin-4-yl)ethynyl)pyridin-2-yl)piperidine-4-carboxamide] were 31%, 67%, 72% and 77%.
The compound `N#Cc1ccc(N2CCC(C(=O)Nc3ccc(CCC4CCN(CC5CCN(c6ccc7c(c6)C(=O)N(C6CCC(=O)NC6=O)C7=O)CC5)CC4)cn3)CC2)cc1C(F)(F)F` (stereo not shown) [Example 133, 1-(4-cyano-3-(trifluoromethyl)phenyl)-N-(5-(2-(1-((1-(2-(2,6-dioxopiperidin-3-yl)-1,3-dioxoisoindolin-5-yl)piperidin-4-yl)methyl)piperidin-4-yl)ethyl)pyridin-2-yl)piperidine-4-carboxamide] displayed an inhibition at 0.01 µM of 60%, an inhibition at 0.1 µM of 93% and an inhibition at 1 µM of 98%.
`N#Cc1ccc(N2CCC(C(=O)Nc3ccc(C#CCN4CC5(CCN(c6ccc7c(c6)C(=O)N(C6CCC(=O)NC6=O)C7=O)CC5)C4)cn3)CC2)cc1C(F)(F)F` (stereo not shown) [Example 134, 1-(4-cyano-3-(trifluoromethyl)phenyl)-N-(5-(3-(7-(2-(2,6-dioxopiperidin-3-yl)-1,3-dioxoisoindolin-5-yl)-2,7-diazaspiro[3.5]nonan-2-yl)prop-1-yn-1-yl)pyridin-2-yl)piperidine-4-carboxamide] gave an inhibition at 0.01 µM of 56%, an inhibition at 0.1 µM of 87%, an inhibition at 1 µM of 96% and an inhibition at 10 µM of 92%.
For the compound `N#Cc1ccc(N2CCC(C(=O)Nc3ccc(N4CCC(CN5CC6(CCN(c7ccc8c(c7)CN(C7CCC(=O)NC7=O)C8=O)CC6)C5)CC4)cn3)CC2)cc1C(F)(F)F` (stereo not shown) [Example 135, 1-(4-cyano-3-(trifluoromethyl)phenyl)-N-(5-(4-((7-(2-(2,6-dioxopiperidin-3-yl)-1-oxoisoindolin-5-yl)-2,7-diazaspiro[3.5]nonan-2-yl)methyl)piperidin-1-yl)pyridin-2-yl)piperidine-4-carboxamide], the inhibition at 0.01 µM worked out at 35%, the inhibition at 0.1 µM turned out to be 94% and 1 µM produced 85% inhibition.

These data come from patent US12122763B2, “Substituted piperidines for androgen receptor degradation” (UBIX THERAPEUTICS, INC., priority 2020, dated 2024).
